In patent publication US4141993A, “Compounds of diphenylcyclopentylamine type and methods for their preparation” (priority 1971, dated 1979):
Read-outs that look alike come from different tables or passages of the source.

Legend:
Dopa response = Dopa response potentiation test; format: in vivo, mice; details: for L-DOPA potentiation, 10 mg/kg i.p., 1h / L-DOPA potentiation, 10 mg/kg i.p., 4h: score, pargyline pretreated; for L-DOPA potentiation, 10 mg/kg i.p., 1h: drug 1 h before 1-Dopa 100 mg/kg i.p.; for L-DOPA potentiation, 10 mg/kg i.p., 4h: drug 4 h before 1-Dopa 100 mg/kg i.p.
Description: Mice in groups of 3 are pretreated with Pargyline® 40 mg/kg p.o. about 10-16 hours before the test. […] 1-Dopa gives a characteristic syndrome which is scored as follows:
1. piloerection, slight salivation, slight increased motor activity
2. piloerection, salivation, marked increased motor activity and irritability
3. piloerection, profuse salivation, marked irritability and reactivity, jumping, squeaking, fighting.
The control groups are Amitriptyline (20 mg/kg i.p. 4 hours before 1-Dopa) and saline (1 hour before 1-Dopa). […] The test drugs were all tested at 10 mg/kg i.p.

uptake of tritiated 5-HT [1] = test: Inhibition of the uptake of tritiated 5-HT in vitro (midbrain slices); format: biochemical, mice; details: for Inhibition (50 %) of uptake in vitro, 5-HT: 5-hydroxytryptamine 10^-7 M
Description: (§1) 1. Inhibition of the uptake of tritiated 5-HT in vitro and in vivo
[…] out and sliced and incubated in a mixture consisting of, per 100 mg of brain slices, […] 2 ml of Krebs-Henseleit buffer, pH 7.4. The incubation time was 5 minutes with 5 minutes of preincubation before ^3 H-5-HT was added. The radioactive ^3 H-5-HT taken up in the slices was extracted with ethanol and the amount was determined by liquid scintillation. […] Active uptake is defined as that part of the radioactive uptake which is inhibited by a high concentration of cocaine. All doses were given at least to four animals.

[2] = system: uptake of tritiated noradrenaline; test: Inhibition of the uptake of tritiated noradrenaline in vitro (cortex slices); format: biochemical; details: for Inhibition (50 %) of uptake in vitro, NA: dl-noradrenaline 10^-7 M
Description: (§2) 2. Inhibition of the uptake of tritiated noradrenaline in vitro and in vivo
(§3) The method is found in European Journal of Pharmacology 2 (1967), 181- 186. The animals were killed half or one hour after the administration of the drugs in vivo (i.p.). The slices, made from cortex, were preincubated for five minutes and incubated with 0.1 μmole per ml of ^3 H-noradrenaline for further five minutes. The incubation mixture consisted of 0.2 μmole of ^3 H-NA and the brain slices in 2 ml of Krebs-Henseleits buffer, pH 7.4. The radioactive ^3 H-NA taken up in the slices was extracted with ethanol and the amount was determined by liquid scintillation. The dose producing 50 percent decrease of the active uptake (ED50) was determined graphically from dose response curves. At least four animals were used at each dose level.
Inhibition (50 %) of uptake
^2) Na = dl-noradrenaline 10^-7 M

uptake of tritiated 5-HT [3] = test: Inhibition of the uptake of tritiated 5-HT in vivo (drug i.p., uptake in midbrain slices); parameters: species or system mice; details: for ED50: Mus musculus, ip, 0.5 h, read-out: Inhibition (50 %) of uptake in vivo, 5-HT (ED50), i.p., half an hour before the animals were killed
Description: as §1
The drugs were administered intraperitoneally half an hour before the animals were killed and the midbrain was taken out and sliced and incubated in a mixture consisting of, per 100 mg of brain slices, 0.2 μmole of ^3 H-5-HT and 1 μmole of glucose in 2 ml of Krebs-Henseleit buffer, pH 7.4. The incubation time was 5 minutes with 5 minutes of preincubation before ^3 H-5-HT was added. The radioactive ^3 H-5-HT taken up in the slices was extracted with ethanol and the amount was determined by liquid scintillation. […] Active uptake is defined as that part of the radioactive uptake which is inhibited by a high concentration of cocaine. All doses were given at least to four animals.

[4] = system: uptake of tritiated noradrenaline; test: Inhibition of the uptake of tritiated noradrenaline in vivo (drug i.p., uptake in cortex slices); details: for ED50: ip, 1 h, read-out: Inhibition (50 %) of uptake in vivo, NA (ED50), i.p., half or one hour before the animals were killed
Description: as §2
as §3, with “The” for “The method is found in European Journal of Pharmacology 2 (1967), 181- 186. The”

5-HTP response = 5-HTP response potentiation test; format: in vivo, mice; details: 0 = without effect; for 5-HTP potentiation, 25 mg/kg i.p., 1h: drug 1 h before 5-HTP; for 5-HTP potentiation, 25 mg/kg i.p., 4h: drug 4 h before 5-HTP
Description: 1. 5-HTP response potentiation test
Inhibition of the uptake of 5-HT potentiates the effects of administered 5-hydroxytryptophane (5-HTP) probably by increasing the amount of 5-HT at the receptor.
These small movements are quantitatively measured in an activity box, type Animex, which can distinguish between small and gross movements. The activity is measured during 20 minutes and only in the case the animals have a fullblown syndrome.

mice [5] = test: Motor activity in mice (exploratory activity, locomotion cage); format: in vivo; details: Mus musculus, ip, 1 h, read-out: Motor activity ID50
Description: The exploratory activity of mice was recorded in a locomotion cage in which the movements were counted each time the animals cross-circuit an electrical current in the bottom plate. The activity was recorded for ten minutes one hour after the administration of the drug. The animals were tested individually. Groups of six mice were used and the mice were only used once. The activity was expressed in percent of the activity of control groups ran simultaneously.

mice [6] = test: Anticholinergic effect (mydriasis) in mice; format: in vivo
Description: (§4) Acute toxicity, behavior and anticholinergic effect (mydriasis) in mice
(§5) The compounds were given by intravenous route to 3 mice. […] Seizures, gait, sedation and grip strength were recorded. […] PD200 is the dose which increases the pupil by 200%.

Acute toxicity in mice = details: mouse, in vivo, iv, within 24 hours
Description: as §4, §5

[7] = i.p., one hour after administration
[8] = i.v., 10 minutes after injection, dose which increases the pupil by 200%

## CN(C)CCC=C1c2ccccc2CCc2ccccc21 [Amitriptyline, reference compound]
Dopa response; 20 mg/kg i.p. 4 hours before 1-Dopa
  Dopa response score of control: three

## CNC1CCC(c2ccccc2)(c2ccccc2)C1 (stereo not drawn) [PUB 107, 1-methylamino-3,3-diphenylcyclopentane]
Uptake of tritiated 5-HT [1]
  Inhibition (50 %) of uptake in vitro, 5-HT: 1 µg/mL
  inhibition of uptake of 5-hydroxytryptamine in vitro, in words: potent inhibitors
[2]
  Inhibition (50 %) of uptake in vitro, NA: 0.7 µg/mL
  inhibition of uptake of noradrenaline in vitro, in words: potent inhibitors
Uptake of tritiated 5-HT [3]
  ED50: > 40 mg/kg
[4]
  ED50: 20 mg/kg
5-HTP response
  5-HTP potentiation, 25 mg/kg i.p., 1h: 0
Dopa response
  L-DOPA potentiation, 10 mg/kg i.p., 1h: 2
  L-DOPA potentiation, 10 mg/kg i.p., 4h: 2
Mice [5]; [7]
  ED50: > 50 mg/kg
Mice [6]; mouse, in vivo, iv, 10 min
  Mydriasis PD200: 15 mg/kg
Acute toxicity in mice
  LD50 at 24 h: 30 mg/kg

## CN(C)C1CCC(c2ccccc2)(c2ccccc2)C1 (stereo not drawn) [PUB 112, 1-dimethylamino-3,3-diphenylcyclopentane]
Uptake of tritiated 5-HT [1]
  Inhibition (50 %) of uptake in vitro, 5-HT: 0.7 µg/mL
  inhibition of uptake of 5-hydroxytryptamine in vitro, in words: potent inhibitors
[2]
  Inhibition (50 %) of uptake in vitro, NA: 0.4 µg/mL
  inhibition of uptake of noradrenaline in vitro, in words: potent inhibitors
Uptake of tritiated 5-HT [3]
  ED50: > 40 mg/kg
[4]
  ED50: 25 mg/kg
5-HTP response
  5-HTP potentiation, 25 mg/kg i.p., 1h: 25
Dopa response
  L-DOPA potentiation, 10 mg/kg i.p., 1h: 2.5
  L-DOPA potentiation, 10 mg/kg i.p., 4h: 2
Mice [5]
  ED50: > 50 mg/kg
Mice [6]; [8]
  Mydriasis PD200: < 1 mg/kg
Acute toxicity in mice
  LD50 at 24 h: 18 mg/kg

## CN(C)CC1CCC(c2ccccc2)(c2ccccc2)C1 (stereo not drawn) [PUE 117, 1-dimethylaminomethyl-3,3-diphenylcyclopentane]
Uptake of tritiated 5-HT [1]
  Inhibition (50 %) of uptake in vitro, 5-HT: 3.6 µg/mL
[2]
  Inhibition (50 %) of uptake in vitro, NA: 2.3 µg/mL
Uptake of tritiated 5-HT [3]
  ED50: > 40 mg/kg
[4]
  ED50: 17 mg/kg
5-HTP response
  5-HTP potentiation, 25 mg/kg i.p., 1h: 0
Dopa response
  L-DOPA potentiation, 10 mg/kg i.p., 1h: 3
  L-DOPA potentiation, 10 mg/kg i.p., 4h: 1.5
Mice [5]
  ED50: > 50 mg/kg
Mice [6]; [8]
  Mydriasis PD200: < 1 mg/kg
Acute toxicity in mice
  LD50 at 24 h: 30 mg/kg

## NCC1CCC(c2ccccc2)(c2ccccc2)C1 (stereo not drawn) [PUE 119, 1-aminomethyl-3,3-diphenylcyclopentane]
Uptake of tritiated 5-HT [1]
  Inhibition (50 %) of uptake in vitro, 5-HT: 0.34 µg/mL
  inhibition of uptake of 5-hydroxytryptamine in vitro, in words: considerably weaker effect
[2]
  Inhibition (50 %) of uptake in vitro, NA: 0.025 µg/mL
  inhibition of uptake of noradrenaline in vitro, in words: strongly effective
Uptake of tritiated 5-HT [3]
  ED50: > 40 mg/kg
[4]
  inhibition of uptake of noradrenaline in vivo, in words: Strong inhibition of the uptake of noradrenaline only
5-HTP response
  5-HTP potentiation, 25 mg/kg i.p., 1h: 0
  5-HTP potentiation, 25 mg/kg i.p., 4h: 0
Dopa response
  L-DOPA potentiation, 10 mg/kg i.p., 1h: 1.5
  L-DOPA potentiation, 10 mg/kg i.p., 4h: 1.5
Mice [5]
  ED50: > 50 mg/kg
Mice [6]; [8]
  Mydriasis PD200: 2.5 mg/kg
Acute toxicity in mice
  LD50 at 24 h: 22 mg/kg

## CNCC1CCC(c2ccccc2)(c2ccccc2)C1 (stereo not drawn) [PUE 122, 1-methylaminomethyl-3,3-diphenylcyclopentane]
Uptake of tritiated 5-HT [1]
  Inhibition (50 %) of uptake in vitro, 5-HT: 4.2 µg/mL
  inhibition of uptake of 5-hydroxytryptamine in vitro, in words: considerably weaker effect
[2]
  Inhibition (50 %) of uptake in vitro, NA: 0.05 µg/mL
  inhibition of uptake of noradrenaline in vitro, in words: strongly effective
Uptake of tritiated 5-HT [3]
  ED50: > 40 mg/kg
[4]
  inhibition of uptake of noradrenaline in vivo, in words: Strong inhibition of the uptake of noradrenaline only
  ED50: 5.5 mg/kg
5-HTP response
  5-HTP potentiation, 25 mg/kg i.p., 1h: 0
Dopa response
  L-DOPA potentiation, 10 mg/kg i.p., 1h: 3
  L-DOPA potentiation, 10 mg/kg i.p., 4h: 3
Mice [5]; [7]
  ED50: > 50 mg/kg
Mice [6]; mouse, in vivo, iv, 10 min
  Mydriasis PD200: > 12.5 mg/kg
Acute toxicity in mice
  LD50 at 24 h: 15 mg/kg

## CN(C)C1CCC(c2ccccc2)(c2ccc(Cl)cc2)C1 (stereo not drawn) [PUN 123, 1-dimethylamino-3-(4-chlorophenyl)-3-phenylcyclopentane]
Uptake of tritiated 5-HT [1]
  Inhibition (50 %) of uptake in vitro, 5-HT: 1 µg/mL
  inhibition of uptake of 5-hydroxytryptamine in vitro, in words: potent inhibitors
[2]
  Inhibition (50 %) of uptake in vitro, NA: 1 µg/mL
  inhibition of uptake of noradrenaline in vitro, in words: potent inhibitors
Uptake of tritiated 5-HT [3]
  ED50: 40 mg/kg
Uptake of tritiated 5-HT [3]; in vivo
  inhibition of uptake of 5-hydroxytryptamine in vivo, in words: strong inhibition
[4]
  inhibition of uptake of noradrenaline in vivo, in words: strong inhibition
  ED50: 30 mg/kg
[4]; uptake inhibition, compared with imipramine
  selectivity towards noradrenaline: substantially nonselective ability towards noradrenaline
5-HTP response
  5-HTP potentiation, 25 mg/kg i.p., 1h: 25
  5-HTP potentiation, 25 mg/kg i.p., 4h: 0
Dopa response
  L-DOPA potentiation, 10 mg/kg i.p., 4h: 3
Mice [5]; [7]
  ED50: > 50 mg/kg
Mice [6]; mouse, in vivo, iv, 10 min
  Mydriasis PD200: < 10 mg/kg
Acute toxicity in mice
  LD50 at 24 h: 30 mg/kg

## CNC1CCC(c2ccccc2)(c2ccc(Cl)cc2)C1 (stereo not drawn) [PUN 125, 1-methylamino-3-(4-chlorophenyl)-3-phenylcyclopentane]
Uptake of tritiated 5-HT [1]
  Inhibition (50 %) of uptake in vitro, 5-HT: 2 µg/mL
[2]
  Inhibition (50 %) of uptake in vitro, NA: 1 µg/mL
Uptake of tritiated 5-HT [3]
  ED50: > 40 mg/kg
[4]
  ED50: > 40 mg/kg
5-HTP response
  5-HTP potentiation, 25 mg/kg i.p., 1h: 0
Dopa response
  L-DOPA potentiation, 10 mg/kg i.p., 1h: 1
  L-DOPA potentiation, 10 mg/kg i.p., 4h: 1

## COc1ccc(C2(c3ccccc3)CCC(N)C2)cc1 (stereo not drawn) [PUT 104, 1-amino-3-(4-methoxyphenyl)-3-phenylcyclopentane]
Uptake of tritiated 5-HT [1]
  Inhibition (50 %) of uptake in vitro, 5-HT: 0.5 µg/mL
  inhibition of uptake of 5-hydroxytryptamine in vitro, in words: potent inhibitors
[2]
  Inhibition (50 %) of uptake in vitro, NA: 1 µg/mL
  inhibition of uptake of noradrenaline in vitro, in words: potent inhibitors
Uptake of tritiated 5-HT [3]
  ED50: > 40 mg/kg
[4]
  ED50: > 40 mg/kg
5-HTP response
  5-HTP potentiation, 25 mg/kg i.p., 1h: > 25
Dopa response; printed in the 1h column, head 10 mg/kg i.p.
  L-DOPA potentiation, entry given as a bound (no score): > 10
Mice [6]; mouse, in vivo, iv, 10 min
  Mydriasis PD200: > 40 mg/kg
Acute toxicity in mice
  LD50 at 24 h: > 40 mg/kg
